Test results: PMC3409373, “Ellagic acid, a phenolic compound, exerts anti-angiogenesis effects via VEGFR-2 signaling pathway in breast cancer” (Breast Cancer Research and Treatment, 2012)

Target: T1, VEGFR-2 (Homo sapiens, UniProt P35968)
T1 construct: gene KDR
Test: ELISA-based tyrosine kinase assay with VEGFR-2 (Upstate), poly-Glu-Tyr substrate, Mg2+ and ATP
Assay type: biochemical

T1 sequence (P35968 20-1356): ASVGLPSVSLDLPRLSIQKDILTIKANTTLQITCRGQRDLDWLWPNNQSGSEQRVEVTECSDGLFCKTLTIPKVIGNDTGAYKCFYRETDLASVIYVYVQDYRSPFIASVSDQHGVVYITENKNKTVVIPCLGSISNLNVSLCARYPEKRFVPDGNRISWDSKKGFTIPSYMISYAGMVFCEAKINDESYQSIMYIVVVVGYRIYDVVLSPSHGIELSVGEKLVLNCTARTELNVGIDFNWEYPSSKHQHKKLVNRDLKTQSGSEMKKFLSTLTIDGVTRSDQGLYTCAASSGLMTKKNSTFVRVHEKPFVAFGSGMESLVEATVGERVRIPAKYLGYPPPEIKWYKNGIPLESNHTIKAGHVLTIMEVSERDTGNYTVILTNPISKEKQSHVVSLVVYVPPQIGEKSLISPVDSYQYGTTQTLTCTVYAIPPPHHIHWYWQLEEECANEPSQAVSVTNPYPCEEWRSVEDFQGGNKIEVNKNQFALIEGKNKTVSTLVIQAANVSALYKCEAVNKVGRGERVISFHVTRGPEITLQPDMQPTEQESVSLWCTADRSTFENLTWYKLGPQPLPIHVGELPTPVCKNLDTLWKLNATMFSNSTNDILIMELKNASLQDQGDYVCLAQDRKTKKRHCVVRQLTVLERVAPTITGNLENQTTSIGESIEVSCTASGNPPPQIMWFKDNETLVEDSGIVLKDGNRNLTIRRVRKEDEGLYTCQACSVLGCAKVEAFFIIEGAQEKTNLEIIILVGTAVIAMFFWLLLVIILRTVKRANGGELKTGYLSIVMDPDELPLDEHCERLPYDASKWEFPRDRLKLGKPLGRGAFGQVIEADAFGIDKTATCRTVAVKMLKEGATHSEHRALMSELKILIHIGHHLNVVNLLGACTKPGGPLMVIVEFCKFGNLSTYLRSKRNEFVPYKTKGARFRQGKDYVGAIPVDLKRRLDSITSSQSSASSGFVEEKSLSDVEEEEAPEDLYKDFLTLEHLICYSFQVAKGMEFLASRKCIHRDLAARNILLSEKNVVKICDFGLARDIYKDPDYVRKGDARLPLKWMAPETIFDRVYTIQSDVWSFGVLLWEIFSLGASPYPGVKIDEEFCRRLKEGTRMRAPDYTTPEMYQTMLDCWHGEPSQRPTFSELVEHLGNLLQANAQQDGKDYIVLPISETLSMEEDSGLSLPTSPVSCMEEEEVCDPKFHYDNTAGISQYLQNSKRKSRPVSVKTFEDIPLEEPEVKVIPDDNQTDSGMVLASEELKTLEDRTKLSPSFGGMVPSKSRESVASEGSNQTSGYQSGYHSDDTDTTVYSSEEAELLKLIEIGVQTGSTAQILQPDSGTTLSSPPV

O=c1oc2c(O)c(O)cc3c(=O)oc4c(O)c(O)cc1c4c23 [ellagic acid, 4,4′,5,5′6, 6′-hexahydroxydiphenic acid 2,6,2′6′-dilactone]
IC50: ~25.8 nM
